Source: BindingDB's records for doi:10.1016/j.ejmech.2017.08.029 (Emory University, 2017)
pIC50: −log10 of the molar value.

Experiment: Inhibition of human GLUT1 in human KMS11 cells over-expressing human GLUT1 assessed as as inhibition of receptor-mediated cell proliferation after 72 hrs by CellTiter-Glo assay

pIC50	SMILES
4.81	O=C(c1ccc(Cl)cc1)N(Cc1ccncc1)Cc1cccc(OCCc2ccc(F)cc2)c1
4.82	COc1ccc(C(=O)N(Cc2ccncc2)Cc2cccc(OCCc3cccc(C(F)(F)F)c3)c2)cc1
4.54	COc1ccc(C(=O)N(Cc2ccncc2)Cc2cccc(OCc3ccc(F)cc3)c2)cc1
4.59	COc1ccc(C(=O)N(Cc2ccncc2)Cc2cccc(OCC3CCOCC3)c2)cc1
4.90	COc1ccc(C(=O)N(Cc2ccncc2)Cc2cccc(OCCc3ccc(C)cc3)c2)cc1
4.67	COc1ccc(C(=O)N(Cc2ccncc2)Cc2cccc(OCC(=O)c3cccc(Br)c3)c2)cc1
4.55	COc1ccc(C(=O)N(Cc2ccncc2)Cc2cccc(OCc3cccc(OC)c3)c2)cc1
4.77	COc1ccc(C(=O)N(Cc2ccncc2)Cc2cccc(OCc3ccc(C(F)(F)F)cc3)c2)cc1
4.80	COc1ccc(C(=O)N(Cc2ccncc2)Cc2cccc(OCC3CCCCC3)c2)cc1
4.77	COc1ccc(C(=O)N(Cc2ccncc2)Cc2cccc(OCC(=O)c3ccc(Cl)cc3)c2)cc1
4.93	COc1ccc(C(=O)N(Cc2ccncc2)Cc2cccc(OCc3ccc([N+](=O)[O-])cc3)c2)cc1
4.66	COc1ccc(CC(=O)N(Cc2ccncc2)Cc2cccc(OCCc3ccc(F)cc3)c2)cc1
5.19	COc1ccc(C(=O)N(Cc2ccncc2)Cc2cccc(OCCc3ccc(Br)cc3)c2)cc1
4.68	COc1ccc(C(=O)N(Cc2ccncc2)Cc2cccc(OCCc3ccccc3)c2)cc1
